Broadly, the IC50 is the concentration needed to halve the response being measured. As a reminder, the CC50 is the concentration that lowers cell viability or growth by half.

Here are results for 12 molecules from paper PMC10609173, “Antiplasmodial and Antileishmanial Activities of a New Limonoid and Other Constituents from the Stem Bark of Khaya senegalensis” (Molecules, 2023).

Data set [1] relates to chloroquine-sensitive 3D7 strain of Plasmodium falciparum (Pf3D7). Description: Antiplasmodial SYBR Green I fluorescence assay, Pf3D7 strain. The class given is cell-based. Particulars: read-out: Antiplasmodial Activity Pf3D7 IC50 ± SD. From the text:
(§1) The parasite strains used in this study are continuously cultured at the Antimicrobial and Biocontrol Agents Unit of the University of Yaoundé I, and were graciously provided by BEI Resources (https://www.beiresources.org (accessed on 16 February 2019)). They comprise the Leishmania donovani strain (1S(MHOM/SD/62/1S), the multiresistant (PfDd2), and the chloroquine-sensitive (Pf3D7-(MRA-102)) strains of Plasmodium falciparum. RPMI 1640 media supplemented with 0.2% sodium bicarbonate (Sigma Aldrich, Billings, MT, USA), 0.5% Albumax II (Gibco), 1% hypoxanthine 100X (Gibco, Billings, MT, USA), 25 mM HEPES, and 0.04% gentamicin (Sigma Aldrich) was used to sustain P. falciparum strains in sterile petri dishes. Fresh red blood cells from healthy O^+ human volunteers were also added to the medium. These cells were suspended at 4% hematocrit (v/v) and incubated at 37 °C in a humidified environment with 5% CO2. To regularly maintain the culture, fresh medium was added to the culture every day. Thin blood smears stained with 10% Giemsa were used to microscopically monitor cell-cycle transition and parasitemia under immersion oil.
(§2) The antiplasmodial efficacy of the samples was evaluated using the SYBR Green I-based fluorescence assay, as previously reported by Smilkstein et al., on a sorbitol-synchronized ring stage culture of Plasmodium falciparum (PfDd2 and Pf3D7 strains). The test relies on the development of intense fluorescence following SYBR green binding to the exposed DNA found in wells containing healthy cells. Ninety microliters of parasites prepared with 1% hematocrit and 2% parasitemia and 10 μL of test sample extracts, fractions, isolated chemicals, chloroquine, and artemisinin were each added in triplicate into wells of a flat-bottomed microplate. The final test concentration values for the samples varied from 50 μg/mL-0.08 μg/mL and 100 μg/mL-0.16 μg/mL for extract/fractions. Following a 72 h incubation at 37 °C, 100 μL of SYBR Green I solution prepared with lysis buffer (0.2 μL of 10,000 SYBR Green I per mL of lysis buffer) made of EDTA (5 mM), Tris (20 mM; pH 7.5), Triton X-100 (0.08%; v/v), and saponin (0.008%; m/v) was added to each well. Fluorescence measurements were taken using an Infinite M200 microplate reader (Tecan, MT, USA) at emission and excitation wavelengths of 538 and 485 nm, respectively.
(§3) The resulting fluorescence readings were used to calculate the growth inhibition percentages relative to the negative control for each sample and for each of the tested doses. GraphPad Prism 8.0 software was used to generate concentration-response curves from the nonlinear regression fit to determine the median inhibitory or cytotoxic concentration (IC50/CC50). The resistance index (RI) for antiplasmodial tests was calculated as the ratio between the samples’ IC50 values for the chloroquine-sensitive strain 3D7 and the multiresistant strain Dd2 [69]. Inhibitors with an RI value below 1 were considered to act preferentially on the resistant strain. Based on each inhibitor’s antiparasitic efficacy (IC50) and cell toxicity (CC50), selectivity indices (SI) were calculated [SI = CC50 (RAW)/IC50 (Parasites)]. Samples were classified as poorly toxic to RAW cells if their SI values were greater than 10 [70].

Data set [2] has as its system multidrug-resistant Dd2 strain of Plasmodium falciparum (PfDd2). The data set is described as follows: Antiplasmodial SYBR Green I fluorescence assay, PfDd2 strain. Particulars: Plasmodium falciparum. The class given is cell-based.
Source text: as §1, §2, §3

A short description of data set [3]: Cytotoxicity assay (resazurin) on RAW 264.7 macrophages. The class given is cell-based, murine. Particulars: mouse. How it is done: The murine macrophage RAW 264.7 cell line was grown in DMEM (Dulbecco’s modified Eagle’s medium) containing 1% penicillin-streptomycin, 1% nonessential amino acids (NEA), and 10% HIFBS at 37 °C, and 5% CO2 in a humidified environment. A reverse Etaluma fluorescence microscope was used to view the cells every day, and the growth media was replaced every 72 h. At 80% confluence, cells were isolated using 0.25% Trypsine-EDTA (Gibco, MT, USA).
The murine macrophages, RAW 264.7 cells, were plated into a 96-well cell culture treated flat-bottomed plate ([…], Inc., Newton, NC 28658, USA) at a density of 10 × 10^4 cells/100 μL/well and incubated overnight to enable cell adhesion. A fresh complete medium containing serially diluted concentrations of crude extract, fractions, and compounds was used to replace the previous medium. The final assay concentration values for extracts/fractions and compounds varied from 400 μg/mL to 0.8 μg/mL and 100–0.16 μg/mL, respectively. Podophyllotoxin (Sigma-Aldrich, Munich, Germany) was used as a positive control at a maximum dose of 10 μM. After 48 h of incubation, 10 μL of resazurin solution (0.15 mg/mL dissolved in PBS) was added to each well, and the plates were incubated for an additional 4 h. Fluorescence data were finally recorded with a Magellan Infinite M200 plate reader (Tecan, Germany) at excitation and emission wavelengths of 530 nm and 590 nm, respectively.
as §3
(Alamar Blue is a resazurin reagent that responds to reducing activity.)

Data set [4] concerns promastigote form of Leishmania donovani (1S(MHOM/SD/62/1S)). Description: Antileishmanial resazurin-based assay on promastigotes. The class given is cell-based. Particulars: for IC50: Leishmania donovani, read-out: Antileishmanial Activity IC50 ± SD; for Antileishmanial Selectivity (SI): SI = CC50 against macrophages/IC50 against promastigotes. How it is done: A T-75 cm^2 cell culture flask was filled with complete Medium 199 [M199 supplemented with 10% heat-inactivated fetal bovine serum (HIFBS) and 100 IU/mL penicillin/streptomycin (Sigma, Darmstadt, Germany)] and used to grow the promastigote forms of Leishmania donovani. Every 72 h, flasks were subcultured and incubated at 28 °C.
The resazurin-based assay was used to evaluate the antileishmanial activity of the extract (100 μg/mL–0.16 μg/mL), major fractions (100 μg/mL–0.16 μg/mL), and isolated compounds (50 μg/mL–0.08 μg/mL) against the promastigote form of Leishmania donovani. Briefly, 10 μL of inhibitors at various triplicate doses (as prescribed for the antiplasmodial assay) were added to 90 μL of promastigotes from a logarithmic phase culture at a density of 4.10^5 parasites/mL. The plates were incubated for 28 h at 28 °C, and 10 μL of resazurin solution (Sigma, Darmstadt, Germany) was added. Amphotericin B (Sigma, Darmstadt, Germany) (10 μg–0.016 μg/mL) and 0.1% DMSO-treated wells were used as the […], respectively. After a further 44 h of incubation, plates were read using a Magelan Infinite M200 fluorescence plate reader (Tecan, Männedorf, Switzerland) at excitation and emission wavelengths of 530 and 590 nm, respectively.
as §3

The subject of data set [5] is amastigote forms of Leishmania donovani. Also on record: method as in doi:10.1076/phbi.39.4.284.5921. Particulars: isolated from Khaya senegalensis; cited from earlier work.
The subject of data set [6] is chloroquine-sensitive/sulfadoxine-resistant Pf3D7 strain. The arrangement: method as in PMID 36837917. Particulars: in vitro; isolated from Trichilia monadelpha; cited from earlier work.
Where [7] appears, read: 3D7, Pf3D7 strain, ring stage, 72 h.
Setting [8] is: DD2, PfDd2 strain, ring stage, 72 h, read-out: Antiplasmodial Activity PfDd2 IC50 ± SD.
Setting [9] is: RAW 264.7 macrophages, 48 h incubation, resazurin, read-out: Cytotoxicity on RAW 264.7 Cells CC50 ± SD.
Setting [10] is: DD2, 72 h, read-out: Antiplasmodial Activity PfDd2 IC50 ± SD, PfDd2 strain, ring stage, 72 h.
Where [11] appears, read: L. donovani promastigotes, 28 °C.

≈ marks a conversion by molar mass, not a printed value. Like-named read-outs stand apart in the source and are kept apart here.

On to `CCN(CC)CCCC(C)Nc1ccnc2cc(Cl)ccc12` (stereo not drawn) [Chloroquine, Chloroquine phosphate, reference compound], for which the IC50 in data set [1] (3D7, 72 h) amounted to 0.022 ± 0.25 µg/mL; in data set [2] (DD2, 72 h, read-out: Antiplasmodial Activity PfDd2 IC50 ± SD), 0.085 ± 0.01 µg/mL.

Take `C[C@@H]1CC[C@H]2[C@@H](C)C(=O)O[C@@H]3O[C@@]4(C)CC[C@@H]1[C@]32OO4` [Artemesin, artemisinin, reference compound]: the IC50 in data set [1] (setting [7]) stood at 0.02 µg/mL (≈ 0.0708 µM); in data set [2] (setting [8]), 0.024 ± 0.24 µg/mL (≈ 0.085 µM).

On to `C=C1[C@@H]2CC[C@@]3(C)[C@H](c4ccoc4)OC(=O)C[C@]13O[C@H]1CC(=O)C(C)(C)[C@H](CC(=O)OC)[C@]12C` [Methylangolensate (4), methyl angolensate], for which the IC50 in data set [1] (3D7, 72 h) came out at 165.19 ± 0.06 µg/mL (≈ 351 µM); in data set [4], 25.8 ± 0.27 µg/mL (≈ 54.9 µM); in data set [2] (setting [10]), 20.5 ± 0.45 µg/mL (≈ 43.6 µM). For the same molecule, in data set [3] (setting [9]), the CC50 at 48 h is 72.7 µg/mL (≈ 155 µM). Moreover, in data set [4], the “Antileishmanial Selectivity (SI)” value is listed as 2.81.

On to `C=C1C2C(OC3CC(=O)OC4(C)COC(=O)CC4C32C)C(OC(=O)C(O)C(C)CC)C2(C)C(c3ccoc3)CC(=O)C12O` (stereo not drawn) [Rohituka-3 (5), rohituka-3], for which the values for the IC50 in data set [1] (setting [7]), in data set [4] (setting [11]) and in data set [2] (setting [10]) were 68 ± 0.02 µg/mL (≈ 113 µM), 23.35 ± 0.21 µg/mL (≈ 38.9 µM) and 15.9 ± 0.33 µg/mL (≈ 26.5 µM), respectively. The CC50 at 48 h in data set [3] (RAW 264.7 macrophage cells, RAW 264.7 macrophages, 48 h incubation, resazurin, read-out: Cytotoxicity on RAW 264.7 Cells CC50 ± SD) is over 400 µg/mL. Further, the “Antileishmanial Selectivity (SI)” value in data set [4] is reported as over 17.13.

On to `COc1cc([C@@H]2c3cc4c(cc3[C@H](O)[C@H]3COC(=O)[C@H]23)OCO4)cc(OC)c1OC` [Podophyllotoxin, reference compound], for which the CC50 at 48 h in data set [3] (setting [9]) worked out at 0.71 ± 0.2 µg/mL (≈ 1.71 µM).

Regarding `Oc1cc(O)c2c(c1)O[C@H](c1ccc(O)c(O)c1)[C@@H](O)[C@@H]2c1c(O)cc2c(c1O)C[C@H](O)[C@@H](c1ccc(O)c(O)c1)O2` [catechin-(4a,6)-catechin], the “IC50 against amastigote forms of Leishmania donovani” value in data set [5] is 3.85 µg/mL.

For `COc1ccc(-c2cc(=O)c3c(O)c(OC)c(OC)cc3o2)cc1OC` [Belamcanidin (8), Belamcanidin], the IC50 in data set [1] (setting [7]) worked out at 104.9 ± 0.39 µg/mL (≈ 293 µM); in data set [4] (setting [11]), 22.21 ± 0.08 µg/mL (≈ 62 µM); in data set [2] (setting [8]), 50.97 ± 0.37 µg/mL (≈ 142 µM). Moreover, the CC50 at 48 h in data set [3] was over 400 µg/mL. In data set [4], the “Antileishmanial Selectivity (SI)” value was over 18.013.

For `CC1(C)CC[C@]2(C(=O)O)CC[C@]3(C)C(=CCC4[C@@]5(C)C[C@@H](O)[C@H](O)C(CO)(CO)C5CC[C@]43C)C2[C@@H]1O` (stereo partly drawn) [Bellericagenin B (2), bellericagenin B], the IC50 is 107.7 ± 0.37 µg/mL (≈ 207 µM) in data set [1] (setting [7]), 6.5 ± 0.01 µg/mL (≈ 12.5 µM) in data set [4] (setting [11]) and 34.02 ± 0.09 µg/mL (≈ 65.3 µM) in data set [2] (setting [8]). Besides, the CC50 at 48 h in data set [3] is over 400 µg/mL. Besides, the “Antileishmanial Selectivity (SI)” value in data set [4] was over 61.54.

As to `COC(=O)[C@H](O)[C@@H]1[C@@]2(C)[C@H]3CC[C@@]4(C)[C@H](c5ccoc5)OC(=O)C[C@@]45O[C@H]4C(=O)[C@@]1(C)C[C@]2(OC(C)=O)[C@@H]4[C@@]35O` [Khayanolide E (6), khayanolide E], the concentration for half-maximal inhibition (IC50) was determined as 56.98 ± 0.08 µg/mL (≈ 102 µM) in data set [1] (setting [7]), 81.73 ± 0.12 µg/mL (≈ 146 µM) in data set [4] (setting [11]) and 14.03 ± 0.06 µg/mL (≈ 25.1 µM) in data set [2] (setting [8]). Also, the CC50 at 48 h in data set [3] turned out to be 81.6 µg/mL (≈ 146 µM). In addition, in data set [6], the “IC50 against Pf3D7” value was 1.68 µg/mL (≈ 3.01 µM). In addition, in data set [4], the “Antileishmanial Selectivity (SI)” value worked out at 0.99.

With `Oc1cc(O)c2c(c1)O[C@H](c1ccc(O)c(O)c1)[C@@H](O)[C@@H]2c1c(O)cc(O)c2c1O[C@H](c1ccc(O)c(O)c1)[C@@H](O)C2` [catechin-(4a,8)-catechin], the “IC50 against amastigote forms of Leishmania donovani” value in data set [5] is 3.98 µg/mL.

Take `C[C@@H]1[C@H](O)[C@@H](C)/C=C/C=C/C=C/C=C/C=C/C=C/C=C/[C@H](O[C@@H]2O[C@H](C)[C@@H](O)[C@H](N)[C@@H]2O)C[C@@H]2O[C@](O)(C[C@@H](O)C[C@@H](O)[C@H](O)CC[C@@H](O)C[C@@H](O)CC(=O)O[C@H]1C)C[C@H](O)[C@H]2C(=O)O` [Amphotericin B, amphotericin B, reference compound]: in data set [4] (setting [11]), the IC50 stood at 3.14 ± 0.46 µg/mL (≈ 3.4 µM).

Consider `C=C(C)[C@@H]1CC[C@]2(C(=O)O)CC[C@]3(C)[C@H](CC[C@@H]4[C@@]5(C)C[C@@H](O)[C@H](O)C(C)(C)[C@@H]5CC[C@]43C)[C@@H]12` [Alphitolic acid (3), alphitolic acid], for which the IC50 is 146.77 ± 0.13 µg/mL (≈ 310 µM) in data set [1] (setting [7]), 17.1 ± 0.9 µg/mL (≈ 36.2 µM) in data set [4] (setting [11]) and over 200 µg/mL in data set [2] (setting [10]). The CC50 at 48 h in data set [3] came to 35.8 µg/mL (≈ 75.6 µM). The “Antileishmanial Selectivity (SI)” value in data set [4] is 2.09.
